Tests used:
Format in all cases: in vivo, human
[1] = test system: patients with findings consistent with mild AD or amnestic MCI; assay: CANTAB Rapid Visual Information Processing (RVP), 4-week placebo-controlled study; conditions: 15 mg daily oral, study day 1
Procedure: (§1) The following example illustrates the methods of the invention, in which a 4-week, parallel-group, randomized, double-blind, placebo-controlled, adaptive proof of concept study of AQW051 at up to three dose levels for the treatment of patients with findings consistent with mild Alzheimer's disease (AD) or Mild Cognitive Impairment (amnestic MCI) was conducted in two stages.
(§2) To assess AQW051 as a cognitive enhancer, as measured by selected tests [Paired Associates Learning (PAL), Spatial Working Memory (SWM), Rapid Visual Information Processing (RVP)] from the Cambridge Neuropsychological Test Automated Battery (CANTAB) computerized cognitive test battery, in patients with findings consistent with mild AD or amnestic MCI.
The investigational drug AQW51 was provided as either 0.5 mg, 5 mg, or 25 mg capsules. In stage I only 5 mg capsules were used. All groups received 15 mg of AQW051 daily for 4 weeks. […]
(§3) The different CANTAB readouts were analyzed separately by rank analyses of covariance, including “treatment” and “stratum” (MCI, AD) as fixed effects and the corresponding baseline value as covariate. […] The different scores from the ADAS-Cog, QoL-AD, the DAD and the MMSE were analyzed using standard analyses of covariance. Safety and tolerability variables measures were analyzed by means of descriptive statistics.

[2] = test system: patients with findings consistent with mild AD or amnestic MCI; assay: CANTAB Graded Naming Test-Revised (GNT), 4-week placebo-controlled study; conditions: 15 mg daily oral; study day 28; PD analysis set N=54; p=0.8191
Procedure: as §1
(§4) To explore effects of AQW051 on other cognitive functions not assessed by the primary measures (CANTAB tests Pattern Recognition Memory (PRM), Choice Reaction Time (CRT), Graded Naming Test-Revised (GNT).
(§5) The investigational drug AQW51 was provided as either 0.5 mg, 5 mg, or 25 mg capsules. In stage I only 5 mg capsules were used. All groups received 15 mg of AQW051 daily for 4 weeks.
On Day 1, 8, 15, 22 and 28, the study drug was administered by study personnel and was taken orally with 240 ml of water after light breakfast. […]
as §3

[3] = test system: patients with findings consistent with mild AD or amnestic MCI; assay: CANTAB Paired Associates Learning (PAL), 4-week placebo-controlled study; conditions: 15 mg daily oral, study day 1
Procedure: as §1, §2, §5
(§6) On Day 1, 8, 15, 22 and 28, the study drug was administered by study personnel and was taken orally with 240 ml of water after light breakfast. On all other study treatment days, patients self-administered the study medication in the morning after light breakfast.
(§7) The different CANTAB readouts were analyzed separately by rank analyses of covariance, including “treatment” and “stratum” (MCI, AD) as fixed effects and the corresponding baseline value as covariate. The comparison of interest was the contrast between active treatment and placebo; tests were performed to the one-sided 10% level without multiplicity-adjustment. Point and interval estimates were produced by the baseline-adjusted stratified Hodges-Lehmann method. In addition, sensitivity analyses were performed using standard analyses of covariance, to complement the aforementioned nonparametric methods. The items “errors at the 6 pattern stage” and “total trials adjusted” of the PAL task at day 28 played a key role at the interim analysis. At the end of stage 1, the conditional power of the study to reach an overall significant result in both these key endpoints at the final analysis was estimated by bootstrap methods. The different scores from the ADAS-Cog, QoL-AD, the DAD and the MMSE were analyzed using standard analyses of covariance. Safety and tolerability variables measures were analyzed by means of descriptive statistics.

[4] = test system: patients with findings consistent with mild AD or amnestic MCI; assay: Adverse events, safety analysis set, 4-week placebo-controlled study; conditions: 15 mg daily oral, 4 weeks
Procedure: as §1
To explore the safety and tolerability of AQW051 in patients with findings consistent with mild AD or amnestic MCI.
as §5, §6, §7
Under one treatment, a subject with multiple occurrences of an adverse event is counted only once in the AE category. N=number of subject studied; n=number of subjects with at least 1 AE in the category. Only adverse events occurring at or after first drug intake are included.

[5] = test system: patients with findings consistent with mild AD or amnestic MCI; assay: CANTAB Spatial Working Memory (SWM), 4-week placebo-controlled study; conditions: 15 mg daily oral, study day 28
Procedure: as §1, §2, §5, §6, §7

[6] = test system: patients with findings consistent with mild AD or amnestic MCI; assay: CANTAB Choice Reaction Time (CRT), 4-week placebo-controlled study; conditions: 15 mg daily oral, study day 28
Procedure: as §1, §4, §5, §6, §7

[7] = test system: patients with findings consistent with mild AD or amnestic MCI; assay: CANTAB Pattern Recognition Memory (PRM), 4-week placebo-controlled study; conditions: 15 mg daily oral, study day 28, PD analysis set N=54
Procedure: as §1, §4, §5, §6, §7

Cc1ccc(-c2ccc(O[C@H]3CN4CCC3CC4)cn2)cc1 [AQW051, (R)-3-(6-p-tolyl-pyridin-3-yloxy)-1-aza-bicyclo[2.2.2]octane]
RVP Mean latency, Difference AQW051 15 mg vs. Placebo ([1]; MCI patient only N=38, p=0.0419): −22 | RVP Mean latency, Difference AQW051 15 mg vs. Placebo ([1]; all patients N=54, p=0.0292): −21.5 | GNT Total correct, Difference, AQW051 15 mg vs. placebo [2]: −1.5 | PAL of total errors (2 shapes adj), Difference AQW051 15 mg vs. Placebo ([3]; MCI patient only N=38, p=0.0239): 0 | PAL total trials (adj), Difference AQW051 15 mg vs. Placebo ([3]; MCI patient only N=38, p=0.0877): −1.5 | PAL total errors (2 shapes adj), Difference AQW051 15 mg vs. Placebo ([3]; all patients N=54, p=0.0142): 0 | PAL total errors (6 shapes adj), Difference AQW051 15 mg vs. Placebo ([3]; all patients N=54, p=0.0840): −2 | PAL total trials (adj), Difference AQW051 15 mg vs. Placebo ([3]; all patients N=54, p=0.0846): −1 | Flatulence related to study drug, (%) ([4]; AD N = 7): 14.3% | Patients with AE(s) related to study drug, (%) ([4]; AD N = 7): 14.3% | Constipation related to study drug, (%) ([4]; MCI N = 20): 5.0% | Dysgraphia related to study drug, (%) ([4]; MCI N = 20): 5.0% | Headache related to study drug, (%) ([4]; MCI N = 20): 10.0% | Increased tendency to bruise related to study drug, (%) ([4]; MCI N = 20): 5.0% | Muscle spasms related to study drug, (%) ([4]; MCI N = 20): 5.0% | Pain in extremity related to study drug, (%) ([4]; MCI N = 20): 5.0% | Patients with AE(s) related to study drug, (%) ([4]; MCI N = 20): 15.0% | Pruritus related to study drug, (%) ([4]; MCI N = 20): 5.0% | Bronchitis AE, (%) of subjects ([4]; N = 27): (3.7) % | Bronchitis AE, n of subjects ([4]; N = 27): 1 | Chalazion AE, (%) of subjects ([4]; N = 27): (3.7) % | Chalazion AE, n of subjects ([4]; N = 27): 1 | Constipation AE, (%) of subjects ([4]; N = 27): (3.7) % | Constipation AE, n of subjects ([4]; N = 27): 1 | Dysgraphia AE, (%) of subjects ([4]; N = 27): (3.7) % | Dysgraphia AE, n of subjects ([4]; N = 27): 1 | Ear and Labyrinth disorders AEs, (%) of subjects ([4]; N = 27): (3.7) % | Ear and Labyrinth disorders AEs, n of subjects ([4]; N = 27): 1 | Epistaxis AE, (%) of subjects ([4]; N = 27): (3.7) % | Epistaxis AE, n of subjects ([4]; N = 27): 1 | Eye disorders AEs, (%) of subjects ([4]; N = 27): (3.7) % | Eye disorders AEs, n of subjects ([4]; N = 27): 1 | Flatulence AE, (%) of subjects ([4]; N = 27): (3.7) % | Flatulence AE, n of subjects ([4]; N = 27): 1 | Gastrointestinal disorders AEs, (%) of subjects ([4]; N = 27): (7.4) % | Gastrointestinal disorders AEs, n of subjects ([4]; N = 27): 2 | Headache AE, (%) of subjects ([4]; N = 27): (7.4) % | Headache AE, n of subjects ([4]; N = 27): 2 | Hepatic function abnormal AE, (%) of subjects ([4]; N = 27): (3.7) % | Hepatic function abnormal AE, n of subjects ([4]; N = 27): 1 | Hepatobiliary disorders AEs, (%) of subjects ([4]; N = 27): (3.7) % | Hepatobiliary disorders AEs, n of subjects ([4]; N = 27): 1 | Increased tendency to bruise AE, (%) of subjects ([4]; N = 27): (3.7) % | Increased tendency to bruise AE, n of subjects ([4]; N = 27): 1 | Infections and infestations AEs, (%) of subjects ([4]; N = 27): (11.1) % | Infections and infestations AEs, n of subjects ([4]; N = 27): 3 | Laryngitis AE, (%) of subjects ([4]; N = 27): (3.7) % | Laryngitis AE, n of subjects ([4]; N = 27): 1 | Muscle spasms AE, (%) of subjects ([4]; N = 27): (3.7) % | Muscle spasms AE, n of subjects ([4]; N = 27): 1 | Musculoskeletal and connective tissue disorders AEs, (%) of subjects ([4]; N = 27): (7.4) % | Musculoskeletal and connective tissue disorders AEs, n of subjects ([4]; N = 27): 2 | Nasopharyngitis AE, (%) of subjects ([4]; N = 27): (3.7) % | Nasopharyngitis AE, n of subjects ([4]; N = 27): 1 | Nervous system disorders AEs, (%) of subjects ([4]; N = 27): (7.4) % | Nervous system disorders AEs, n of subjects ([4]; N = 27): 2 | Pain in extremity AE, (%) of subjects ([4]; N = 27): (7.4) % | Pain in extremity AE, n of subjects ([4]; N = 27): 2 | Patients with AEs, (%) of subjects ([4]; N = 27): (40.7) % | Patients with AEs, n of subjects ([4]; N = 27): 11 | Pruritus AE, (%) of subjects ([4]; N = 27): (3.7) % | Pruritus AE, n of subjects ([4]; N = 27): 1 | Respiratory, thoracic and mediastinal disorders AEs, (%) of subjects ([4]; N = 27): (3.7) % | Respiratory, thoracic and mediastinal disorders AEs, n of subjects ([4]; N = 27): 1 | Skin and subcutaneous disorders AEs, (%) of subjects ([4]; N = 27): (7.4) % | Skin and subcutaneous disorders AEs, n of subjects ([4]; N = 27): 2 | Skin lesion AE, (%) of subjects ([4]; N = 27): (3.7) % | Skin lesion AE, n of subjects ([4]; N = 27): 1 | Tympanic membrane perforation AE, (%) of subjects ([4]; N = 27): (3.7) % | Tympanic membrane perforation AE, n of subjects ([4]; N = 27): 1 | Constipation related to study drug, (%) ([4]; Total N = 27): 3.7% | Dysgraphia related to study drug, (%) ([4]; Total N = 27): 3.7% | Flatulence related to study drug, (%) ([4]; Total N = 27): 3.7% | Headache related to study drug, (%) ([4]; Total N = 27): 7.4% | Increased tendency to bruise related to study drug, (%) ([4]; Total N = 27): 3.7% | Muscle spasms related to study drug, (%) ([4]; Total N = 27): 3.7% | Pain in extremity related to study drug, (%) ([4]; Total N = 27): 3.7% | Patients with AE(s) related to study drug, (%) ([4]; Total N = 27): 14.8% | Pruritus related to study drug, (%) ([4]; Total N = 27): 3.7% | SWM Between errors (6 boxes), Difference AQW051 15 mg vs. Placebo ([5]; MCI patient only N=38, p=0.0290): −2.5 | SWM Between errors, Difference AQW051 15 mg vs. Placebo ([5]; MCI patient only N=38, p=0.0845): −5 | SWM Between errors (6 boxes), Difference AQW051 15 mg vs. Placebo ([5]; all patients N=54, p=0.0430): −2 | SWM Between errors, Difference AQW051 15 mg vs. Placebo ([5]; all patients N=54, p=0.0701): −3.5 | SWM Between errors (4 boxes), Difference AQW051 15 mg vs. Placebo ([5]; all patients N=54, p=0.0866): −0.5 | CRT Percent correct trials, Difference AQW051 15 mg vs. Placebo ([6]; MCI patient only N=38, p=0.0918): 0.5 | CRT Median latency, Difference, AQW051 15 mg vs. placebo ([6]; MCI patient only N=38, p=0.0966): −23 | CRT Median latency, Difference, AQW051 15 mg vs. placebo ([6]; PD analysis set N=54, p=0.3273): −9.5 | CRT Percent correct trials, Difference AQW051 15 mg vs. Placebo ([6]; all patients N=54, p=0.0632): 0.5 | PRM Percent correct delayed, Difference, AQW051 15 mg vs. placebo ([7]; p=0.4244): 0 | PRM Mean correct latency delayed, Difference, AQW051 15 mg vs. placebo ([7]; p=0.7864): 150 ms | PRM Percent correct immediate, Difference, AQW051 15 mg vs. placebo ([7]; p=0.8090): −4 | PRM Mean correct latency immediate, Difference, AQW051 15 mg vs. placebo ([7]; p=0.8328): 198 ms

From US11433057B2, “Method for improving or enhancing cognition” (VANDA PHARMACEUTICALS INC., priority 2016, dated 2022)
